Activity calls are given as the source filed them. The rule behind the calls is not given here.
Key:
Homo sapiens [1] = species on record: Homo sapiens; assay: Binding affinity to human telomeric 23 G-quadruplex DNA assessed as change in melting temperature at 10 molequiv after 30 mins by CD spectra analysis
Homo sapiens [2] = species on record: Homo sapiens; assay: Binding affinity to human telomeric 23-p G-quadruplex DNA assessed as increase in melting temperature up to 240 uM after 30 mins by CD spectra analysis
BJeH-LT [3] = assay: Induction of DNA damage in human BJeH-LT cells assessed as increase in gamma-H2AX foci formation at 1 uM after 24 hrs followed by compound washout by hoechst staining-based immunofluorescence analysis; type: functional, cell-based
BJeH-LT [4] = assay: Induction of DNA damage in human BJeH-LT cells assessed as increase in gamma-H2AX foci formation at 1 uM after 24 hrs by hoechst staining-based immunofluorescence analysis; type: functional, cell-based
hTERT-BJ = assay: Induction of DNA damage in human hTERT-BJ cells assessed as increase in gamma-H2AX foci formation at 1 uM after 24 hrs by hoechst staining-based immunofluorescence analysis; type: cell-based
BJeH-LT [5] = assay: Induction of DNA damage in human BJeH-LT cells assessed as increase in telomere's dysfunction induced foci positive nuclei at 1 uM after 24 hrs by hoechst staining-based immunofluorescence analysis; type: functional, cell-based
Homo sapiens [6] = species on record: Homo sapiens; assay: Binding affinity to human telomeric 23-p G-quadruplex DNA assessed as change in melting temperature at 10 molequiv after 30 mins by CD spectra analysis
[7] = Binding affinity to 12-mer duplex DNA (unknown origin) at 10 molequiv after 30 mins by CD spectra analysis
Homo sapiens [8] = species on record: Homo sapiens; assay: Binding affinity to human telomeric 26 G-quadruplex DNA assessed as change in melting temperature at 10 molequiv after 30 mins by CD spectra analysis
Homo sapiens [9] = species on record: Homo sapiens; assay: Binding affinity to G-quadruplex DNA in human BJeH-LT cells at 1 uM after 24 hrs by hoechst staining-based immunofluorescence analysis; type: cell-based
BJeH-LT [10] = assay: Induction of DNA damage in human BJeH-LT cells assessed as increase in gamma-H2AX foci formation at >1 uM after 24 hrs by hoechst staining-based immunofluorescence analysis; type: functional, cell-based
[11] = Binding affinity to 5'-FAM/3'-TAMRA labelled F21T G-quadruplex DNA (unknown origin) assessed as increase in melting temperature at 4 uM in presence of 5 to 10 uM 12-mer duplex DNA by FRET assay
[12] = Binding affinity to human Cy5-labeled telomeric 26 G-quadruplex DNA by […] analysis
Homo sapiens [13] = species on record: Homo sapiens; assay: Binding affinity to human telomeric 23-p G-quadruplex DNA assessed as increase in melting temperature at lower concentration after 30 mins by CD spectra analysis
Homo sapiens [14] = species on record: Homo sapiens; assay: Binding affinity to human telomeric 26 G-quadruplex DNA assessed as increase in melting temperature up to 300 uM after 30 mins by CD spectra analysis
[15] = Binding affinity to 5'-FAM/3'-TAMRA labelled F21T G-quadruplex DNA (unknown origin) assessed as change in melting temperature at 4 uM by FRET assay
Homo sapiens [16] = species on record: Homo sapiens; assay: Binding affinity to human telomeric 23 G-quadruplex DNA assessed as increase in melting temperature up to 300 uM after 30 mins by CD spectra analysis
Homo sapiens [17] = species on record: Homo sapiens; assay: Inhibition of PARP in human BJeH-LT cells assessed as reduction of Poly(ADP-ribosyl)ation at 1 uM preincubated for 16 hrs followed by [3H]NAD addition measured after 10 mins by liquid scintillation counting method; type: cell-based
[18] = biological target: Poly [ADP-ribose] polymerase 1 (Homo sapiens, UniProt P09874); assay: Inhibition of recombinant human PARP1 expressed in Escherichia coli assessed as reduction of Poly(ADP-ribosyl)ation after 15 mins in presence of [3H]NAD+/cleaved DNA/histones by scintillation counting method
Chain of Poly [ADP-ribose] polymerase 1 (P09874 whole entry): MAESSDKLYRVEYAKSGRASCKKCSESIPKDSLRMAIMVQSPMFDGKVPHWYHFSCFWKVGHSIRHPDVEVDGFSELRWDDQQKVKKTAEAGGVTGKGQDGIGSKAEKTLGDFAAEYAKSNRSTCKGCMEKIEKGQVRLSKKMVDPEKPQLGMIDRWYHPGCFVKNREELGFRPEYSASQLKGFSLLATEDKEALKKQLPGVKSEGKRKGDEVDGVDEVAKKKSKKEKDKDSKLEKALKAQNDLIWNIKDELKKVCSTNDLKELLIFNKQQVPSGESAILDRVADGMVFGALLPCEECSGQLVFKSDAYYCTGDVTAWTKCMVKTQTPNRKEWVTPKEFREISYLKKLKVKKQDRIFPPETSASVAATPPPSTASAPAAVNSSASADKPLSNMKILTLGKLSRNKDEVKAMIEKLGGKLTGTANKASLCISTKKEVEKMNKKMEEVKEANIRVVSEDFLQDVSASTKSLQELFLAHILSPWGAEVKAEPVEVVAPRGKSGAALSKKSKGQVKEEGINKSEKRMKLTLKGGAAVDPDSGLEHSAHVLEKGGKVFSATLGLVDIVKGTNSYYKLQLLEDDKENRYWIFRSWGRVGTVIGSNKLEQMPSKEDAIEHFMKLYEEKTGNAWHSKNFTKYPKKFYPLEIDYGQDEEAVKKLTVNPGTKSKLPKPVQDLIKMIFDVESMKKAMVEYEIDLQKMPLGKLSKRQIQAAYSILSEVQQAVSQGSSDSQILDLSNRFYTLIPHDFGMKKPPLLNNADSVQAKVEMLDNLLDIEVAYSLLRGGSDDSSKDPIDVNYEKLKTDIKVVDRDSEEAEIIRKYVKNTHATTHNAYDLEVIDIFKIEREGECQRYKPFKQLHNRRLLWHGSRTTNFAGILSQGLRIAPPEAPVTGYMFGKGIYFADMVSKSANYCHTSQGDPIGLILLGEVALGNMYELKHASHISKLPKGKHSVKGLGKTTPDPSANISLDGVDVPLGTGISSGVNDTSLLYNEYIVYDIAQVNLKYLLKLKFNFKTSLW

DLD-1 [19] = assay: Antiproliferative activity against human DLD1 cells deficient BRCA2 up to 2 uM after 6 days by MTT assay; type: functional, cell-based
DLD-1 [20] = assay: Antiproliferative activity against human DLD1 cells harboring BRCA2 up to 2 uM after 6 days by MTT assay; type: functional, cell-based
Homo sapiens [21] = species on record: Homo sapiens; assay: Binding affinity to human Cy5-labeled telomeric 26 G-quadruplex DNA at 10^-1 to 10^4 nM by […] analysis

| SMILES | ΔTm (Homo sapiens [1]) [°C] | Activity (BJeH-LT [3]) | Activity (BJeH-LT [4]) | Activity (hTERT-BJ) | Activity (BJeH-LT [5]) | ΔTm (Homo sapiens [6]) [°C] | ΔTm (Homo sapiens [8]) [°C] | Activity (Homo sapiens [9]) | other results |
| --- | --- | --- | --- | --- | --- | --- | --- | --- | --- |
| Cn1c(=O)c2ccccc2c2sc(C(=O)NCCN3CCC(Cc4ccccc4)CC3)cc21 | 1.6 | inactive | Active | Non-Toxic | Active | 10.5 | 3 | Active | Activity (Homo sapiens [2]): Active; Activity [7]: inactive |
| COC(=O)c1cc2[nH]c(=O)c3ccccc3c2s1 | 0.9 | inactive |  |  |  | 3 | 0.9 | Active | Activity (BJeH-LT [10]): inactive |
| Cc1nc2c(O)cccc2c(=O)[nH]1 | 0 |  |  |  |  | 2.4 | 1.1 |  |  |
| COC(=O)c1cc2c(=O)[nH]c3ccccc3c2s1 | 1.5 | inactive | Active | Non-Toxic | inactive | 1.9 | 2.2 | Active |  |
| Cn1c(=O)c2cc(C(=O)NCCN3CCC(Cc4ccccc4)CC3)sc2c2ccccc21 | 5.8 | inactive | Active | Non-Toxic | Active | 7 | 5.5 | Active | Activity [11]: Active; Kd [12]: 240 nM; Activity (Homo sapiens [13]): Active; Activity (Homo sapiens [14]): Active; ΔTm [15]: 4.5 °C; Activity [7]: inactive; Activity (Homo sapiens [16]): Active |
| O=C(NCCN1CCC(Cc2ccccc2)CC1)c1cc2[nH]c(=O)c3ccccc3c2s1 | 0.7 | inactive |  |  |  | 4.2 | 2 |  | inhibition (Homo sapiens [17]): Active; IC50 [18]: 223 nM |
| Oc1nc(-c2ccc(C(F)(F)F)cc2)nc2c1CSCC2 |  |  |  |  |  |  |  | inactive |  |
| O=c1[nH]c2sccc2c2ccccc12 |  |  | inactive |  |  |  |  | inactive | Activity (DLD-1 [19]): inactive; Activity (DLD-1 [20]): inactive |
| CN1C(=O)C2C=C(C(=O)NCCN3CCC(Cc4ccccc4)CC3)SC2c2ccccc21 (stereo unspecified) |  |  |  |  | Active |  |  | Active | Activity (DLD-1 [19]): Active; Activity (DLD-1 [20]): Active |
| COC(=O)c1cc2c(s1)c1ccccc1c(=O)n2C | -0.8 | inactive | Active | Non-Toxic | inactive | 1.4 | 1.4 | Active |  |
| O=C(NCCN1CCC(Cc2ccccc2)CC1)c1cc2c(=O)[nH]c3ccccc3c2s1 | 0.3 | inactive | Active | Non-Toxic | Active | 7.7 | 2.6 | Active | Activity (Homo sapiens [2]): Active; Activity [7]: inactive |
| COC1CCN(C(=O)c2cc(Cc3n[nH]c(=O)c4ccccc34)ccc2F)CC1 | 0.1 |  |  |  |  | 2.6 | 1.3 | inactive |  |
| COC(=O)c1cc2c(=O)n(C)c3ccccc3c2s1 | 0.4 | inactive |  |  |  | 2.4 | 0.4 | Active | Activity (BJeH-LT [10]): inactive; Activity (Homo sapiens [21]): inactive |
